Measured values: paper PMC10747202, “Computational and Experimental Drug Repurposing of FDA-Approved Compounds Targeting the Cannabinoid Receptor CB1” (Pharmaceuticals, 2023)

Experiments:
Conditions in all cases: read-out: % displacement at 10 μM
[1] = biological target: T1, cannabinoid receptor 1 (CB1R) (Mus musculus, UniProt P47746); experiment: [3H]CP55, […] competition radioligand binding, mouse brain membranes, […] (weak)
T1 construct: gene Cnr1; native receptor in mouse brain membranes

[2] = biological target: T1, cannabinoid receptor 1 (CB1R); experiment: [3H]CP55, […] competition radioligand binding, mouse brain membranes, […]
[3] = biological target: T1, cannabinoid receptor 1 (CB1R); experiment: [3H]CP55, […] competition radioligand binding, mouse brain membranes, […] (positive control)

T1 sequence (P47746 whole entry): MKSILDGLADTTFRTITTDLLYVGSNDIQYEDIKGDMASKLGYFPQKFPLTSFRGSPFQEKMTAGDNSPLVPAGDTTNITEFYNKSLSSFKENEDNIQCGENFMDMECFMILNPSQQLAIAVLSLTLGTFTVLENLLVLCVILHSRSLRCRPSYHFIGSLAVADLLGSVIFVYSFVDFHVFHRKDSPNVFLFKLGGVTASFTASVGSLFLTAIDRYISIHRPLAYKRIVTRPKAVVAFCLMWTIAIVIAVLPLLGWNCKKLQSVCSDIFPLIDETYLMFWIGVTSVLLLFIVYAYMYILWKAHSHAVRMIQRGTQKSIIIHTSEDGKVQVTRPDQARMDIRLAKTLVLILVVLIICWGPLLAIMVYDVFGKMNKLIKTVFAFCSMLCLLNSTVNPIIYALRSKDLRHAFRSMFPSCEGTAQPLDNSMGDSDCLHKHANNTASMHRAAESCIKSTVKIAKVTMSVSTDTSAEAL

| SMILES | inhibition at 10 µM [1] | inhibition at 10 µM [2] | also measured |
| --- | --- | --- | --- |
| Nc1nc(N)c2nc(CNc3ccc(C(=O)N[C@@H](CCC(=O)O)C(=O)O)cc3)cnc2n1 [APGA, Aminopterin] | ~30% | – | – |
| COc1ccc(CN=c2[nH]c(N3CCC[C@H]3CO)ncc2C(=O)NCc2ncccn2)cc1Cl [Avanafil] | ~30% | – | – |
| CN(Cc1cnc2nc(N)nc(N)c2n1)c1ccc(C(=O)N[C@@H](CCC(=O)O)C(=O)O)cc1 [Methotrexate] | – | ~50% | – |
| CCCCCCCCCCCCCCCCOP(=O)([O-])OCC[N+](C)(C)C [Miltefosine] | – | ~60% | – |
| O=C(c1ccc(OCCN2CCCCC2)cc1)c1c(-c2ccc(O)cc2)sc2cc(O)ccc12 [Raloxifene] | – | – | inhibition at 10 µM [3]: > 50% |
| Cc1nnc(C(=O)NC(C)(C)c2nc(C(=O)NCc3ccc(F)cc3)c(O)c(=O)n2C)o1 [Raltegravir] | – | ~80% | – |
| COC(=O)N(C)c1c(N)nc(-c2nn(Cc3ccccc3F)c3ncccc23)nc1N [Riociguat] | ~20% | – | – |
| CCCCC(=O)N(Cc1ccc(-c2ccccc2-c2nnn[nH]2)cc1)[C@H](C(=O)O)C(C)C [Valsartan] | ~30% | – | – |
